Data reported in EP4782450A1, “NOVEL SKELETAL DERIVATIVE EFFECTIVE FOR HER2 MUTATION, AND PHARMACEUTICAL COMPOSITION COMPRISING SAME” (Hanmi Pharm. Co., Ltd., priority 2023, dated 2025).

Key:
Ba/F3 HER2 A775insYVMA = test: Growth inhibition of Ba/F3 cells engineered to overexpress HER2 A775_G776insYVMA (CellTiter-Glo luminescence); format: cell-based; conditions: Mus musculus, BaF3, 72 hours, concentrations 1000 to 0.32 nM, read-out: Ba/F3 HER2^YVMA GI50 class
Method: (§1) Experimental Example: Growth inhibition of Ba/F3 HER2 A775insYVMA and wild-type Ba/F3 cells
(§2) In this Experimental Example, the compounds obtained in Examples 1 to 92 were evaluated for their ability to inhibit growth of cells harboring either the HER2 A775insYVMA mutation or wild-type EGFR. For this purpose, Ba/F3 cells (ATCC, USA) were genetically engineered to overexpress either HER2 A775_G776insYVMA or wild-type EGFR, and the growth of these engineered Ba/F3 cells were monitored in the presence of the compounds described in the Examples to evaluate their effects on growth inhibition.
(§3) Specifically, culture flasks of the engineered Ba/F3 cells suspended in RPMI 1640 medium supplemented with 10% fetal bovine serum (FBS) and 1% penicillin/streptomycin (Gibco BRL, USA) were placed in a cell incubator and incubated at 37°C and 5% CO2 level to allow them to reach a stable logarithmic growth phase. The cells were then harvested by centrifugation to remove the old media and placed into a 96-well plate by dividing them into 100 µL aliquots per well at a dilution of 1×10^5 cells/mL in fresh media. Each of the compounds prepared in the preceding Examples were dissolved in 99.5% (cell culture grade) dimethylsulfoxide (DMSO) to prepare a stock solution of 10 mM concentration, which were serially diluted in the culture medium to final concentrations of 1000, 200, 40, 8, 1.6 and 0.32 nM for HER2 A775insYVMA Ba/F3 cells and concentrations of 10000, 5000, 1000, 200, 40 and 8 nM for wild-type EGFR overexpressing Ba/F3 cells.
(§4) To each aliquot of cells in the 96-well plate, a 50 µL test solution comprising one of the compounds was added to result in each well a 150 µL volume of cells with a compound in a final concentration ranging from 10 µM to 0.32 nM. The Ba/F3 cells treated with the test solution were incubated for 72 hours at 37°C and 5% CO2 level and underwent a 30-minute acclimation by placing the 96-well plate carrying the cells in ambient temperature. Thereafter, to each well was added 50 µL CellTiter-Glo® Luminescent Cell Assay Reagent (CTG, Promega, USA). After allowing 10 minutes to stabilize the signal, luminescence intensity was measured using a microplate reader. The half-maximal growth inhibition concentration (GI50) was calculated from the luminescence readout of the test compounds with the difference between the initial and final cell densities for the well untreated with a compound set at 100% growth. Nonlinear regression analysis based on log[inhibitor] vs. normalized response mode of the Graph Prism software was used for calculating GI50 for each compound, which are summarized in Table 6. The calculated GI50 values are classified in Table 6 into four categories: A for GI50 values less than 100 nM, B for GI50 values more than 100 nM but less than 1,000 nM, C for GI50 values more than 1,000 nM but less than 5,000 nM, and D for GI50 values of more than 5,000 nM.

[1] = tested on: wild-type EGFR overexpressing Ba/F3 cells; test: Growth inhibition of Ba/F3 cells engineered to overexpress wild-type EGFR (CellTiter-Glo luminescence); format: cell-based; conditions: Mus musculus, BaF3, 72 hours, concentrations 10000 to 8 nM, read-out: Ba/F3 EGFR^WT GI50 class
Method: as §1, §2, §3, §4

Structure (SMILES)	GI50 (Ba/F3 HER2 A775insYVMA)	GI50 [1]
C=CC(=O)N(C)CC(=O)Nc1ccc2ncnc(Nc3ccc(Oc4ccc5c(c4)ncn5C)c(C)c3)c2n1 [Example 21, N-methyl-N-(2-((4-((3-methyl-4-((1-methyl-1H-benzo[d]imidazol-5-yl)oxy)phenyl)amino)pyrido[3,2-d]pyrimidin-6-yl)amino)-2-oxoethyl)acrylamide]	0.1 to 1 µM	1 to 5 µM
C=CC(=O)N1CCCC(/C=C/c2ccc3ncnc(Nc4ccc(Oc5ccc6c(c5)ncn6C)c(C)c4)c3n2)C1 (stereo not shown) [Example 27, (E)-1-(3-(2-(4-((3-methyl-4-((1-methyl-1H-benzo[d]imidazol-5-yl)oxy)phenyl)amino)pyrido[3,2-d]pyrimidin-6-yl)vinyl)piperidin-1-yl)prop-2-en-1-one]	0.1 to 1 µM	1 to 5 µM
C=CC(=O)NC/C=C/c1ccc2ncnc(Nc3ccc(Oc4ccn5nccc5c4)c(C)c3)c2n1 [Example 37, (E)-N-(3-(4-((3-methyl-4-(pyrazolo[1,5-a]pyridin-5-yloxy)phenyl)amino)pyrido[3,2-d]pyrimidin-6-yl)allyl)acrylamide]	0.1 to 1 µM	< 0.1 µM
C=CC(=O)N(C)CCOc1ccc2ncnc(Nc3ccc(Oc4ccn5ncnc5c4)c(C)c3)c2c1 [Example 1, N-(2-((4-((4-([1,2,4]triazolo[1,5-a]pyridin-7-yloxy)-3-methylphenyl)amino)quinazolin-6-yl)oxy)ethyl)-N-methylacrylamide]	< 0.1 µM	0.1 to 1 µM
Cc1cc(Nc2ncnc3ccc(/C=C/CNC(=O)/C=C/CN(C)C)nc23)ccc1Oc1ccc2c(c1)ncn2C [Example 40, (E)-4-(dimethylamino)-N-((E)-3-(4-((3-methyl-4-((1-methyl-1H-benzo[d]imidazol-5-yl)oxy)phenyl)amino)pyrido[3,2-d]pyrimidin-6-yl)allyl)but-2-enamide]	< 0.1 µM	> 5 µM
Cc1cc(Nc2ncnc3ccc(/C=C/CNC(=O)/C=C/CN4CCOCC4)nc23)ccc1Oc1ccc2c(c1)ncn2C [Example 60, (E)-N-((E)-3-(4-((3-methyl-4-((1-methyl-1H-benzo[d]imidazol-5-yl)oxy)phenyl)amino)pyrido[3,2-d]pyrimidin-6-yl)allyl)-4-morpholinobut-2-enamide]	< 0.1 µM	> 5 µM
C=CC(=O)N(C)C1(/C=C/c2ccc3ncnc(Nc4ccc(Oc5ccc6c(c5)ncn6C)c(C)c4)c3n2)CC1 [Example 30, (E)-N-methyl-N-(1-(2-(4-((3-methyl-4-((1-methyl-1H-benzo[d]imidazol-5-yl)oxy)phenyl)amino)pyrido[3,2-d]pyrimidin-6-yl)vinyl)cyclopropyl)acrylamide]	0.1 to 1 µM	0.1 to 1 µM
C=CC(=O)N(C)C/C=C/c1ccc2ncnc(Nc3ccc(Oc4ccc5c(c4)ncn5C)c(Cl)c3)c2n1 [Example 25, (E)-N-(3-(4-((3-chloro-4-((1-methyl-1H-benzo[d]imidazol-5-yl)oxy)phenyl)amino)pyrido[3,2-d]pyrimidin-6-yl)allyl)-N-methylacrylamide]	< 0.1 µM	1 to 5 µM
C=CC(=O)N1CCCC[C@H]1C#Cc1ccc2ncnc(Nc3ccc(Oc4ccc5c(c4)ncn5C)c(C)c3)c2n1 [Example 89, (S)-1-(2-((4-((3-methyl-4-((1-methyl-1H-benzo[d]imidazol-5-yl)oxy)phenyl)amino)pyrido[3,2-d]pyrimidin-6-yl)ethynyl)piperidin-1-yl)prop-2-en-1-one]	< 0.1 µM	1 to 5 µM
C=CC(=O)N(C)[C@@H](C)/C=C/c1ccc2ncnc(Nc3ccc(Oc4ccc5c(c4)ncn5C)c(C)c3)c2n1 [Example 51, (S,E)-N-methyl-N-(4-(4-((3-methyl-4-((1-methyl-1H-benzo[d]imidazol-5-yl)oxy)phenyl)amino)pyrido[3,2-d]pyrimidin-6-yl)but-3-en-2-yl)acrylamide]	< 0.1 µM	1 to 5 µM
C=CC(=O)N(C)[C@H](C)/C=C/c1ccc2ncnc(Nc3ccc(Oc4ccc5c(c4)ncn5C)c(C)c3)c2n1 [Example 52, (R,E)-N-methyl-N-(4-(4-((3-methyl-4-((1-methyl-1H-benzo[d]imidazol-5-yl)oxy)phenyl)amino)pyrido[3,2-d]pyrimidin-6-yl)but-3-en-2-yl)acrylamide]	< 0.1 µM	1 to 5 µM
C=CC(=O)N1CC(/C=C/c2ccc3ncnc(Nc4ccc(Oc5ccc6c(c5)ncn6C)c(C)c4F)c3n2)C1 [Example 46]	< 0.1 µM	1 to 5 µM
C=CC(=O)N(C)CC#Cc1cc2c(Nc3ccc(Oc4ccn5ncnc5c4)c(C)c3)ncnc2cc1OC [Example 73, N-(3-(4-((4-([1,2,4]triazolo[1,5-a]pyridin-7-yloxy)-3-methylphenyl)amino)-7-methoxyquinazolin-6-yl)prop-2-yn-1-yl)-N-methylacrylamide]	1 to 5 µM	1 to 5 µM
C=CC(=O)N(C)CC#Cc1cc2c(Nc3ccc(Oc4ccn5ncnc5c4)c(C)c3)ncnc2cn1 [Example 67, N-(3-(4-((4-([1,2,4]triazolo[1,5-a]pyridin-7-yloxy)-3-methylphenyl)amino)pyrido[3,4-d]pyrimidin-6-yl)prop-2-yn-1-yl)-N-methylacrylamide]	0.1 to 1 µM	0.1 to 1 µM
C=CC(=O)N1CCCC[C@@H]1C#Cc1ccc2ncnc(Nc3ccc(Oc4ccn5ncnc5c4)c(C)c3)c2n1 [Example 82, (R)-1-(2-((4-((4-([1,2,4]triazolo[1,5-a]pyridin-7-yloxy)-3-methylphenyl)amino)pyrido[3,2-d]pyrimidin-6-yl)ethynyl)piperidin-1-yl)prop-2-en-1-one]	< 0.1 µM	0.1 to 1 µM
C=CC(=O)N(C)CCCN(C)c1ccc2ncnc(Nc3ccc(Oc4ccc5c(c4)ncn5C)c(C)c3)c2n1 [Example 20, N-methyl-N-(3-(methyl(4-((3-methyl-4-((1-methyl-1H-benzo[d]imidazol-5-yl)oxy)phenyl)amino)pyrido[3,2-d]pyrimidin-6-yl)amino)propyl)acrylamide]	0.1 to 1 µM	> 5 µM
C=CC(=O)N1CC[C@@H]1C#Cc1ccc2ncnc(Nc3ccc(Oc4ccn5ncnc5c4)c(C)c3)c2c1 [Example 78, (R)-1-(2-((4-((4-([1,2,4]triazolo[1,5-a]pyridin-7-yloxy)-3-methylphenyl)amino)quinazolin-6-yl)ethynyl)azetidin-1-yl)prop-2-en-1-one]	< 0.1 µM	0.1 to 1 µM
C=CC(=O)N1CCC[C@H]1C#Cc1ccc2ncnc(Nc3ccc(Oc4ccn5ncnc5c4)c(C)c3)c2c1 [Example 75, (S)-1-(2-((4-((4-([1,2,4]triazolo[1,5-a]pyridin-7-yloxy)-3-methylphenyl)amino)quinazolin-6-yl)ethynyl)pyrrolidin-1-yl)prop-2-en-1-one]	< 0.1 µM	0.1 to 1 µM
C=CC(=O)N1CCCC[C@H]1C#Cc1ccc2ncnc(Nc3ccc(Oc4ccn5ncnc5c4)c(C)c3)c2c1 [Example 77, (S)-1-(2-((4-((4-([1,2,4]triazolo[1,5-a]pyridin-7-yloxy)-3-methylphenyl)amino)quinazolin-6-yl)ethynyl)piperidin-1-yl)prop-2-en-1-one]	< 0.1 µM	< 0.1 µM
C=CC(=O)N(C/C=C/c1ccc2ncnc(Nc3ccc(Oc4ccc5c(c4)ncn5C)c(C)c3)c2n1)C(C)(C)C [Example 53, (E)-N-(tert-butyl)-N-(3-(4-((3-methyl-4-((1-methyl-1H-benzo[d]imidazol-5-yl)oxy)phenyl)amino)pyrido[3,2-d]pyrimidin-6-yl)allyl)acrylamide]	< 0.1 µM	1 to 5 µM
